Test results as given in patent publication US10807982B2, “Bromodomain inhibitors” (CELGENE QUANTICEL RESEARCH, INC., priority 2015, dated 2020).
pIC50: −log10 of the molar value.

Key:
[1] = system: HL-60, human proleukemia cells; experiment: Cell-MTS cellular proliferation assay, HL-60; type: cell-based; conditions: Homo sapiens, HL-60 cells, 168 hr incubation
Description: (§1) A colorimetric cellular proliferation assay (Cell-MTS assay) was performed to assess the ability of the heterocyclic derivative […] inhibitors disclosed herein to effect the proliferation of established cancer cell lines.
(§2) The Cell-MTS assay is a 7-day plate-based colorimetric assay which quantifies the amount of newly generated NADH in the presence or absence of test compound. The NADH level is used for the quantification of cancer cell proliferation.
(§3) Established cancer cell lines with a variety of driving mutations were obtained from American Type Culture Collection (ATCC) and routinely passaged according to ATCC protocols. For routine assay, these cells were seeded at densities which enabled ˜90% confluence after 7 days of culture. Raji, human Burkitts lymphoma cells, (cMYC) were seeded at 15,000 cells per 96-well. HL-60, human proleukemia cells, (NRAS, p16, p53, c-Myc amplified) were seeded at 5,000 cells per 96-well. NCI-H460, human non-small cell lung cancer cells. (KRAS, PIK3CA, STLK11, p16) were seeded at 3,000 cells per 96-well. 24 hr after plating, cells received an 11 point dilution of test compound with final concentration ranges from 100 µM to 2.0 nM. Cells were incubated in the presence of compound for 168 hr at 37° C., and 5% CO2. At the end of this incubation period, 80 µL of media is removed and 20 µL of CellTiter 96® AQueous Non-Radioactive Cell Proliferation Assay solution (Promega) was added. The cells were incubated until the OD490 was >0.6. IC50 values were calculated using the IDBS XLfit software package and include background subtracted OD490 values and normalization to DMSO controls. Cellular proliferation IC50 values were uploaded and archived using the Chem Biography Platform. Table 3 provides the results of the in vitro enzyme inhibition assay experiments and the in vitro cell-based assay experiments performed with the compounds disclosed herein: […]

[2] = system: NCI-H460, human non-small cell lung cancer cells; experiment: Cell-MTS cellular proliferation assay, NCI-H460; type: cell-based; conditions: Homo sapiens, 168 hr incubation
Description: as §1, §2, §3

BRD4(BD1) = BRD4(BD1) (Homo sapiens (Human), UniProt O60885); experiment: In vitro enzyme inhibition assay (BRD4 AlphaScreen, H4-tetraacetyl peptide); type: binding; conditions: BRD4(BD1) 2 nM, peptide 15 nM
Description: Determination of the IC50 for the heterocyclic derivative BRD4 inhibitors disclosed herein was performed as follows. His-tagged […] was cloned, expressed and purified to homogeneity. Filipakopoulos et al., 468 Nature 1067 (2010). BRD4 binding and inhibition was assessed by monitoring the interaction of biotinylated H4-tetraacetyl peptide (AnaSpec, H4K5/8/12/16(Ac), biotin—labeled) with the target using the AlphaScreen technology (Life Technologies). In a 384-well ProxiPlate BRD4(BD1) (2 nM final) was combined with peptide (15 nM final) in 50 mM HEPES (pH 7.3), 10 mM NaCl, 0.25 mM TCEP, 0.1% (w/v) BSA, and 0.005% (w/v) Brij-35 either in the presence of DMSO (final 0.4% DMSO) or compound dilution series in DMSO. After 20 min incubation at RT, Alpha streptavidin donor beads and Nickel Chelate acceptor beads were added to a final concentration of 5 μg/mL. After 2 hr of equilibration, plates were read on an Envision instrument and the IC50 was calculated using a four parameter non-linear curve fit.
The ability of the compounds disclosed herein to inhibit BRD4 activity was quantified and the respective IC50 value was determined.

[3] = system: Raji, human Burkitts lymphoma cells; experiment: Cell-MTS cellular proliferation assay, Raji; type: cell-based; conditions: Homo sapiens, 168 hr incubation
Description: as §1, §2, §3

| Structure (SMILES) | pIC50 [1] | pIC50 [2] | pIC50 (BRD4(BD1)) | pIC50 [3] |
| --- | --- | --- | --- | --- |
| Cc1cc(-c2cc(NS(C)(=O)=O)c3ncn(Cc4cccc(F)c4)c3c2)cn(C)c1=O [Example 32, N-[6-(1,5-dimethyl-6-oxopyridin-3-yl)-1-[(3-fluorophenyl)methyl]benzimidazol-4-yl]methanesulfonamide] | ≥ 6.30 | 5.30 to 6.30 | ≥ 6.30 | ≥ 6.30 |
| CCS(=O)(=O)Nc1cc(-c2cc(C)c(=O)n(C)c2)cc2c1ncn2Cc1cccc(F)c1 [Example 33, N-[6-(1,5-dimethyl-6-oxopyridin-3-yl)-1-[(3-fluorophenyl)methyl]benzimidazol-4-yl]ethanesulfonamide] | ≥ 6.30 | 5.30 to 6.30 | ≥ 6.30 | ≥ 6.30 |
| Cc1cc(-c2cc(NS(C)(=O)=O)c3nc(C)n(Cc4ccccc4)c3c2)cn(C)c1=O [Example 34, N-[1-benzyl-6-(1,5-dimethyl-6-oxopyridin-3-yl)-2-methylbenzimidazol-4-yl]methanesulfonamide] | ≥ 6.30 | < 5.30 | ≥ 6.30 | ≥ 6.30 |
| Cc1cc(-c2cc(NS(C)(=O)=O)c3nc(C)n(Cc4cccc(F)c4)c3c2)cn(C)c1=O [Example 35, N-[6-(1,5-dimethyl-6-oxopyridin-3-yl)-1-[(3-fluorophenyl)methyl]-2-methylbenzimidazol-4-yl]methanesulfonamide] | ≥ 6.30 | 5.30 to 6.30 | ≥ 6.30 | ≥ 6.30 |
| CCS(=O)(=O)Nc1cc(-c2cc(C)c(=O)n(C)c2)cc2c1nc(C)n2Cc1cccc(F)c1 [Example 36, N-[6-(1,5-dimethyl-6-oxopyridin-3-yl)-1-[(3-fluorophenyl)methyl]-2-methylbenzimidazol-4-yl]ethanesulfonamide] | ≥ 6.30 | ≥ 6.30 | ≥ 6.30 | ≥ 6.30 |
| Cc1cc(-c2cc(NS(C)(=O)=O)c3nc(C)n(Cc4ccc(F)cc4)c3c2)cn(C)c1=O [Example 37, N-[6-(1,5-dimethyl-6-oxopyridin-3-yl)-1-[(4-fluorophenyl)methyl]-2-methylbenzimidazol-4-yl]methanesulfonamide] | ≥ 6.30 | 5.30 to 6.30 | ≥ 6.30 | ≥ 6.30 |
| COc1cc(-c2cc(NS(C)(=O)=O)c3nc(C)n(Cc4ccc(F)cc4)c3c2)cn(C)c1=O [Example 38, N-[1-[(4-fluorophenyl)methyl]-6-(5-methoxy-1-methyl-6-oxopyridin-3-yl)-2-methylbenzimidazol-4-yl]methanesulfonamide] | ≥ 6.30 | < 5.30 | ≥ 6.30 | ≥ 6.30 |
| Cc1cc(-c2cc(NS(C)(=O)=O)c3nc(C)n(CC4CC4)c3c2)cn(C)c1=O [Example 39, N-[1-(cyclopropylmethyl)-6-(1,5-dimethyl-6-oxopyridin-3-yl)-2-methylbenzimidazol-4-yl]methanesulfonamide] | ≥ 6.30 | < 5.30 | ≥ 6.30 | ≥ 6.30 |
| CCCCn1cnc2c(NS(=O)(=O)CC)cc(-c3cc(C)c(=O)n(C)c3)cc21 [Example 40, N-[1-butyl-6-(1,5-dimethyl-6-oxopyridin-3-yl)benzimidazol-4-yl]ethanesulfonamide] | ≥ 6.30 | < 5.30 | ≥ 6.30 | ≥ 6.30 |
| CCS(=O)(=O)Nc1cc(-c2cc(C)c(=O)n(C)c2)cc2c1ncn2Cc1ccc(F)cc1F [Example 41, N-[1-[(2,4-difluorophenyl)methyl]-6-(1,5-dimethyl-6-oxopyridin-3-yl)benzimidazol-4-yl]ethanesulfonamide] | ≥ 6.30 | 5.30 to 6.30 | ≥ 6.30 | ≥ 6.30 |
| CCS(=O)(=O)Nc1cc(-c2cc(C)c(=O)n(C)c2)cc2c1cnn2Cc1ccccc1 [Example 42, N-[1-benzyl-6-(1,5-dimethyl-6-oxopyridin-3-yl)indazol-4-yl]ethanesulfonamide] | ≥ 6.30 | 5.30 to 6.30 | ≥ 6.30 | ≥ 6.30 |
| CCS(=O)(=O)Nc1cc(-c2cc(C)c(=O)n(C)c2)cc2c1cnn2Cc1ccc(F)cc1 [Example 43, N-[6-(1,5-dimethyl-6-oxopyridin-3-yl)-1-[(4-fluorophenyl)methyl]indazol-4-yl]ethanesulfonamide] | ≥ 6.30 | ≥ 6.30 | ≥ 6.30 | ≥ 6.30 |

More lines, now with the values ahead:

| pIC50 [1] | pIC50 [2] | pIC50 (BRD4(BD1)) | pIC50 [3] | Structure (SMILES) |
| --- | --- | --- | --- | --- |
| ≥ 6.30 | 5.30 to 6.30 | ≥ 6.30 | ≥ 6.30 | Cc1cc(-c2cc(NS(C)(=O)=O)c3nc(C)n([C@@H](C)c4ccccc4)c3c2)cn(C)c1=O [Example 44, N-[6-(1,5-dimethyl-6-oxopyridin-3-yl)-2-methyl-1-[(1S)-(1-phenylethyl)]benzimidazol-4-yl]methanesulfonamide] |
| ≥ 6.30 | < 5.30 | ≥ 6.30 | ≥ 6.30 | COC[C@@H](C)n1c(C)nc2c(NS(C)(=O)=O)cc(-c3cc(C)c(=O)n(C)c3)cc21 [Example 46, N-[6-(1,5-dimethyl-6-oxopyridin-3-yl)-1-[(2R)-1-methoxypropan-2-yl]-2-methylbenzimidazol-4-yl]methanesulfonamide] |
| ≥ 6.30 | < 5.30 | ≥ 6.30 | ≥ 6.30 | CCS(=O)(=O)Nc1cc(-c2cc(C)c(=O)n(C)c2)c2oc(C3CC3)nc2c1 [Example 47, N-[2-cyclopropyl-7-(1,5-dimethyl-6-oxopyridin-3-yl)-1,3-benzoxazol-5-yl]ethanesulfonamide] |
| ≥ 6.30 | ≥ 6.30 | ≥ 6.30 | ≥ 6.30 | CCS(=O)(=O)Nc1cc(-c2cn(C)c(=O)c3ccccc23)c2oc(C3CC3)nc2c1 [Example 48, N-[2-cyclopropyl-7-(2-methyl-1-oxoisoquinolin-4-yl)-1,3-benzoxazol-5-yl]ethanesulfonamide] |
| ≥ 6.30 | 5.30 to 6.30 | ≥ 6.30 | ≥ 6.30 | CCS(=O)(=O)N1CCOc2cc(OCC3CC3)c(-c3cn(C)c(=O)c4ccccc34)cc21 [Example 49, 4-[7-(cyclopropylmethoxy)-4-ethylsulfonyl-2,3-dihydro-1,4-benzoxazin-6-yl]-2-methylisoquinolin-1-one] |
| ≥ 6.30 | < 5.30 | ≥ 6.30 | ≥ 6.30 | CCS(=O)(=O)N1CCOc2cc(OCC3CC3)c(-c3cc(C)c(=O)n(C)c3)cc21 [Example 50, 5-[7-(cyclopropylmethoxy)-4-ethylsulfonyl-2,3-dihydro-1,4-benzoxazin-6-yl]-1,3-dimethylpyridin-2-one] |
| ≥ 6.30 | < 5.30 | ≥ 6.30 | 5.30 to 6.30 | Cc1cc(-c2cc(NS(=O)(=O)C(C)C)cc3nc(C4CC4)oc23)cn(C)c1=O [Example 51, N-[2-cyclopropyl-7-(1,5-dimethyl-6-oxopyridin-3-yl)-1,3-benzoxazol-5-yl]propane-2-sulfonamide] |
| ≥ 6.30 | < 5.30 | ≥ 6.30 | ≥ 6.30 | CCS(=O)(=O)Nc1cc(-c2cc(C)c(=O)n(C)c2)c2oc(C3CCCC3)nc2c1 [Example 52, N-[2-cyclopentyl-7-(1,5-dimethyl-6-oxopyridin-3-yl)-1,3-benzoxazol-5-yl]ethanesulfonamide] |
| ≥ 6.30 | < 5.30 | ≥ 6.30 | ≥ 6.30 | CCS(=O)(=O)Nc1cc(-c2cn(C)c(=O)c3ccccc23)c2oc(C3CCCC3)nc2c1 [Example 53, N-[2-cyclopentyl-7-(2-methyl-1-oxoisoquinolin-4-yl)-1,3-benzoxazol-5-yl]ethanesulfonamide] |
| ≥ 6.30 | < 5.30 | ≥ 6.30 | 5.30 to 6.30 | Cc1cc(-c2cc(CS(C)(=O)=O)cc3nc(C4CC4)oc23)cn(C)c1=O [Example 56, 5-[2-cyclopropyl-5-(methylsulfonylmethyl)-1,3-benzoxazol-7-yl]-1,3-dimethylpyridin-2-one] |
